Entries after “also recorded” stand apart in the source; their conditions may differ. Where a SMILES comes first, the peptide text is derived from it. [ ]: non-standard residue; d: D form.
What was measured:
ãH2A.X foci = test: γH2A.X foci immunofluorescence after γ-irradiation; format: cell-based; conditions: 30 µM peptide, 2 h pretreatment, 5 Gy; five fields; vs R9-srbPep
Protocol: To study DNA damage and repair, attached cells were pretreated with the peptides for 2 h and were then ã-irradiated (5 Gy). After irradiation, cells were cultured in the presence of the peptides for the indicated time. For analyzing ãH2A.X foci formation, cells were fixed in a solution of methanol and acetone (70%:30% v/v) for 15 min at −20°C. The slides were air-dried for storage and rehydrated in PBS prior to immunostaining. Cells were stained by a mouse monoclonal antibody specific to ãH2A.X (Millipore, Billerica, MA) followed by an Alexa Fluor 488 conjugated anti-mouse IgG antibody. For analyzing Rad51 foci formation, cells were fixed in PBS buffered 4% paraformaldehyde at room temperature for 15 min. After being washed twice by PBS, cells were permeabilized in PBS containing 0.5% triton for 15 min on ice. The fixed and permeabilized cells were stained with a rabbit polyclonal antibody raised against the human Rad51 (Santa Cruz) followed by an Alexa Fluor 488 conjugated anti-rabbit IgG antibody. Stained cells were visualized and imaged by a confocal microscope.

[1] = test system: EJ-mediated DSB repair, U2OS-derived EJ5-GFP cells; test: DSB repair reporter assay, EJ (EJ5-GFP); format: cell-based; conditions: 30 µM, GFP-positive cells 3 d after I-SceI transfection, normalized to R9-srbPep, triplicates
Protocol: The plasmid pCBASce expresses the rare cutting I-SceI meganuclease. The U2OS-derived cell lines, DR-GFP, EJ5-GFP, and SA-GFP contain a stably transfected reporter gene for DSB repair mediated by HR, end joining (EJ), and single-strand annealing (SSA), respectively. These cell lines were cultured in DMEM medium with 10% FBS at 37°C in the presence of 5% CO2.
DR-GFP, EJ5-GFP, and SA-GFP cell lines were seeded at 2.5×10^4 cells/cm^2 in a 12-well plate. Once attached overnight, cells were transfected with 1.2 µg of the pCBASce I-SceI expression plasmid mixed with 3.6 µl of Lipofectamine 2000 (Invitrogen) in 200 µl of Optimem media (Invitrogen). After incubation for 3 h, the media containing transfection complexes was aspirated and replaced with fresh media containing 30 µM of the peptides. The HR, EJ, and SSA-mediated DSB repair, indicated by the restoration of a functional GFP gene in the respective cell lines, were quantified by measuring the relative abundance of GFP-positive cells by flow cytometry 3 d after transfection.

[2] = test system: non-malignant 7SM0032 cells; test: TUNEL apoptosis assay, 7SM0032; format: cell-based, human; conditions: 7SM0032, same treatment (40 µM, 48 h), vs NB cells
Protocol: (§1) To measure cell growth, cells were seeded at 3×10^4/ml. After being allowed to attach overnight, cells were treated with various concentrations of the peptides for 72 h. Cell growth was measured by the CellTitor-Glo assay (Promega, Madison, WI) according to manufacturer's instruction. To measure apoptosis, cells were seeded at 1×10^5/ml onto a chamber slide. Once attached, cells were treated with the peptides for 48 h. Cells were fixed and analyzed by a TUNEL assay using the TMR red in situ cell death detection kit (Roche Diagnostics, Indianapolis, IN).

SK-N-BE(2)c cells = test: TUNEL apoptosis assay, SK-N-BE(2)c; format: cell-based, human; conditions: 40 µM, 48 h, six fields
Protocol: as §1

[3] = test system: xenograft tumors derived from the SK-N-BE2(c) cells; test: SK-N-BE(2)c xenograft tumor model in nude mice; format: in vivo, mouse; conditions: n = 10/group, intratumoral injection 3 times a week, vs PBS or R9-srbPep
Protocol: All experiments involving live animals were carried out in strict accordance with the recommendations in the Guide for the Care and Use of Laboratory Animals of the National Institutes of Health. The protocol (#11034) was reviewed and approved by the City of Hope Institutional Animal Care and Use Committee. Nude mice 6 weeks of age were purchased from the Jackson Laboratory (Bar Harbor, ME). SK-N-BE(2)c cells were harvested and washed twice in PBS. Cells were suspended in Matrigel (BD Biosciences) at 5×10^7/ml. 0.1 ml of suspended cells was subcutaneously injected into the right flank of each of 30 nude mice. Seven days after tumor inoculation, mice were randomly grouped into three groups with 10 mice in each group. The mice were treated with PBS, R9-srbPep, or R9-caPep 3 times a week by intratumoral injection. Tumor growth was measured weekly as well as at the end of the experiment by a dial caliper. Tumor volumes were estimated based on the length (L) and width (W) of the tumors (V = L×W^2×0.5). At the end of the experiment, tumors were isolated from sacrificed mice and their masses were measured.

[4] = test system: human peripheral blood mononuclear cells (PBMC); format: cell-based; conditions: 72 h
Protocol: (§2) The human NB cell lines, SK-N-DZ, SK-N-BE(2)c, SK-N-AS, SK-N-SH, and SK-N-FI were obtained from the American Type Culture Collection (Rockville, MD). Cells were maintained in DMEM with 10% fetal bovine serum (FBS), 100 units/ml penicillin, and 100 µg/ml streptomycin in the presence of 5% CO2 at 37°C. Human PBMCs from a healthy donor were purchased from Sanguine BioSciences (Valencia, CA) and grown in RPMI1640 with10% FBS, 100 units/ml penicillin, 100 µg/ml streptomycin, and 10 ng/ml IL-2 in the presence of 5% CO2 at 37°C. Human embryonic progenitor cell line 7SM0032 was acquired from Millipore (Billerica, MA) and grown in the hEPM-1 Media Kit purchased from the same company.
as §1

[5] = test system: human neural crest stem cells (7SM0032); format: cell-based; conditions: 72 h
Protocol: as §2, §1

[6] = test system: SK-N-BE(2)c cells, DNA synthesis; test: BrdU incorporation assay; format: cell-based, human; conditions: peptide 7.5 h then 10 µM BrdU 30 min, vs R9-srbPep, triplicates
Protocol: SK-N-BE(2)c cells were treated with the peptides for 7.5 h and then incubated in 10 ìmol/L BrdU for an additional 30 min in the continuous presence of the peptides. Cells were detached with trypsin and fixed in Cytofix/Cytoperm buffer according to the manufacturer's instructions (BD Bioscience, San Jose, CA). Fixed cells were treated with DNase to expose incorporated BrdU and stained with FITC-conjugated anti-BrdU antibody (BD Bioscience) for 1 h at room temperature. Samples were analyzed by flow cytometry to quantify the amount of BrdU incorporation. Percentages of FITC-positive cells were determined by analysis with the FlowJo software. Statistical analysis was conducted using a two-tailed t-test.

IC50 [5]: > 100 µM
Compound: CC[C@H](C)[C@H](NC(=O)CNC(=O)[C@H](CC(C)C)NC(=O)[C@H](CS)NC(=O)[C@H](CS)NC(=O)[C@@H](CCCNC(=N)N)NC(=O)[C@@H](CCCNC(=N)N)NC(=O)[C@@H](CCCNC(=N)N)NC(=O)[C@@H](CCCNC(=N)N)NC(=O)[C@@H](CCCNC(=N)N)NC(=O)[C@@H](CCCNC(=N)N)NC(=O)[C@@H](CCCNC(=N)N)NC(=O)[C@@H](CCCNC(=N)N)NC(=O)[C@H](N)CCCNC(=N)N)C(=O)N1CCC[C@H]1C(=O)N[C@@H](CCC(=O)O)C(=O)N[C@@H](CCC(N)=O)C(=O)N[C@@H](CCC(=O)O)C(=O)N[C@@H](Cc1ccc(O)cc1)C(=O)O [R9-caPep] (H-[dR][dR][dR][dR][dR][dR][dR][dR][dR]CCLGIPEQEY-OH; N-terminus and C-terminus assumed)
resolution of ãH2A.X foci (ãH2A.X foci): delayed the resolution of ãH2A.X foci induced by ã-irradiation
EJ-mediated DNA repair [1]: only small effects on EJ or SSA; also recorded: little effect on the EJ pathway
effect on cell survival in non-malignant cells [2]: significantly less effect on cell cycle progression and cell survival
apoptosis: TUNEL positivity (SK-N-BE(2)c cells): increased TUNEL positivity
tumor growth (tumor mass) ([3]; end of experiment): significantly and nearly completely inhibited tumor growth
tumor growth (tumor volume) ([3]; ** p<0.01): significantly and nearly completely inhibited tumor growth
IC50 [4]: 98 µM
percentage of BrdU-positive cells [6]: significant reduction in the percentage of BrdU-positive cells
